In ChEMBL document CHEMBL5236565, “Design, synthesis, and biological evaluation of novel 2'-methyl-2'-fluoro-6-methyl-7-alkynyl-7-deazapurine nucleoside analogs as anti-Zika virus agents” (Eur J Med Chem, 2022):
The source made the active and inactive calls. The rule behind the calls is not given here.

Experiments:
Zika virus [1] = assay: Antiviral activity against ZIKV infected in human A549 cells at 50 uM by microtiter assay relative to control; type: functional
A549 [2] = assay: Cytotoxicity against human A549 cells assessed as cell growth inhibition measured after 24 hrs by MTT assay; type: functional
Zika virus [3] = assay: Antiviral activity against ZIKV ZG-01 infected in human A549 cells assessed as reduction in viral induced cytopathic effect by measuring reduction in PFU measured after 4 days by neutral red staining based plaque assay; type: functional, organism-based; conditions: ZG-01, A549, 96 h; for EC90: time 4 day
NS5 = NS5 (Zika virus, UniProt A0A143MHK7); assay: Binding affinity to N-terminal His-tagged recombinant ZIKV ZG-01 RdRp (272 to 903 residues) expressed in Escherichia coli rosetta by surface plasmon resonance assay
NS5, sequence (A0A143MHK7 whole entry, the tested form may be a part): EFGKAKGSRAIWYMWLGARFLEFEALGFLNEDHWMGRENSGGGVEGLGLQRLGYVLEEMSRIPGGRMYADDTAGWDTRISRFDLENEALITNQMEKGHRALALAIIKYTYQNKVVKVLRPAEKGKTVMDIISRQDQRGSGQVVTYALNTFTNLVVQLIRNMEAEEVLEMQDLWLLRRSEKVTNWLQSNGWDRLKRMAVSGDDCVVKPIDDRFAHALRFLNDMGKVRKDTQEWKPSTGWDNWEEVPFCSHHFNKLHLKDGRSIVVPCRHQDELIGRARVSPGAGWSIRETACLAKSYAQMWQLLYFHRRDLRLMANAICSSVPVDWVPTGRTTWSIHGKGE

A549 [4] = assay: Induction of mitochondrial membrane potential loss in human A549 cells at 50 to 100 uM by JC-1 staining based fluorescence microscope; type: functional, cell-based; conditions: dose 50-100 µM
Zika virus [5] = assay: Antiviral activity against ZIKV ZG-01 infected in African green monkey Vero cells assessed as reduction in viral induced cytopathic effect by measuring reduction in PFU measured after 4 days by neutral red staining based plaque assay; type: functional, organism-based; conditions: ZG-01, Vero, 96 h
Zika virus [6] = assay: Antiviral activity against ZIKV MR766 infected in human SNB-19 cells assessed as reduction in viral induced cytopathic effect by measuring reduction in PFU measured after 4 days by neutral red staining based plaque assay; type: functional, organism-based; conditions: MR766, SNB-19, 96 h
A549 [7] = assay: Downregulation of ZIKV E protein cleaved caspase 3 expression in human A549 cells at 2.5 to 25 uM by immunofluorescence analysis; type: functional, cell-based; conditions: dose 2.5-25 µM
Zika virus [8] = assay: Antiviral activity against ZIKV MR766 infected in African green monkey Vero cells assessed as reduction in viral induced cytopathic effect by measuring reduction in PFU measured after 4 days by neutral red staining based plaque assay; type: functional, organism-based; conditions: 96 h
Zika virus [9] = assay: Antiviral activity against ZIKV ZG-01 infected in human Huh-7 cells assessed as reduction in viral induced cytopathic effect by measuring reduction in PFU measured after 4 days by neutral red staining based plaque assay; type: functional, organism-based; conditions: ZG-01, Huh-7, 96 h
Huh-7 = assay: Cytotoxicity against human Huh-7 cells assessed as cell growth inhibition measured after 24 hrs by MTT assay; type: functional
Zika virus [10] = assay: Antiviral activity against ZIKV MR766 infected in human Huh-7 cells assessed as reduction in viral induced cytopathic effect by measuring reduction in PFU measured after 4 days by neutral red staining based plaque assay; type: functional, organism-based; conditions: MR766, Huh-7, 96 h
[11] = Cytotoxicity against African green monkey Vero cells assessed as cell growth inhibition measured after 24 hrs by MTT assay; type: toxicity, cell-based; conditions: chlorocebus sabaeus
Vero = assay: Downregulation of ZIKV E protein cleaved caspase 3 expression in African green monkey Vero cells at 5 to 25 uM measured after 48 hrs by Western blotting analysis; type: functional, cell-based; conditions: Chlorocebus sabaeus, dose 5-25 µM
A549 [12] = assay: Downregulation of ZIKV E protein cleaved caspase 3 expression in human A549 cells at 5 to 25 uM measured after 48 hrs by Western blotting analysis; type: functional, cell-based; conditions: dose 5-25 µM
Zika virus [13] = assay: Antiviral activity against ZIKV ZG-01 infected in human SNB-19 cells assessed as reduction in viral induced cytopathic effect by measuring reduction in PFU measured after 4 days by neutral red staining based plaque assay; type: functional, organism-based; conditions: ZG-01, SNB-19, 96 h
Zika virus [14] = assay: Antiviral activity against ZIKV MR766 infected in human A549 cells assessed as reduction in viral induced cytopathic effect by measuring reduction in PFU measured after 4 days by neutral red staining based plaque assay; type: functional, organism-based; conditions: MR766, A549, 96 h
SNB-19 = assay: Cytotoxicity against human SNB-19 cells assessed as cell growth inhibition measured after 24 hrs by MTT assay; type: functional

## Cc1ncnc2c1c(C#Cc1ccccc1C(F)(F)F)cn2[C@@H]1O[C@H](CO)[C@@H](O)[C@@]1(C)F
Zika virus [1]
  Activity: 34.4%

## C#C[C@@]1(O)[C@H](O)[C@@H](CO)O[C@H]1n1ccc2c(N)ncnc21
A549 [2]
  CC50: > 50 µM
Zika virus [3]
  EC50: 14 µM
  EC90: 30.9 µM
NS5
  Kd: 3.43 µM

## Cc1ccnc(C#Cc2cn([C@@H]3O[C@H](CO)[C@@H](O)[C@@]3(C)F)c3ncnc(C)c23)c1
Zika virus [1]
  Activity: <10%

## COc1cccc(C#Cc2cn([C@@H]3O[C@H](CO)[C@@H](O)[C@@]3(C)F)c3ncnc(C)c23)n1
Zika virus [1]
  Activity: <10%

## Cc1ncnc2c1c(C#Cc1ccc(Br)cc1)cn2[C@@H]1O[C@H](CO)[C@@H](O)[C@@]1(C)F
A549 [2]
  CC50: > 50 µM
Zika virus [3]
  EC50: 4.4 µM
  EC90: 14.7 µM
Zika virus [1]
  Activity: >90%

## Cc1ncnc2c1c(C#CC(C)(C)C)cn2[C@@H]1O[C@H](CO)[C@@H](O)[C@@]1(C)F
Zika virus [1]
  Activity: 22.4%

## Cc1ccccc1C#Cc1cn([C@@H]2O[C@H](CO)[C@@H](O)[C@@]2(C)F)c2ncnc(C)c12
A549 [2]
  CC50: > 50 µM
Zika virus [3]
  EC50: 8.5 µM
  EC90: 25.7 µM
Zika virus [1]
  Activity: >90%

## Cc1ncnc2c1c(C#Cc1cccc(Br)c1)cn2[C@@H]1O[C@H](CO)[C@@H](O)[C@@]1(C)F
A549 [2]
  CC50: > 50 µM
Zika virus [3]
  EC50: 4.5 µM
  EC90: 15.4 µM
Zika virus [1]
  Activity: >90%

## Cc1cccnc1C#Cc1cn([C@@H]2O[C@H](CO)[C@@H](O)[C@@]2(C)F)c2ncnc(C)c12
Zika virus [1]
  Activity: <10%

## Cc1ncnc2c1c(C#CC1CC1)cn2[C@@H]1O[C@H](CO)[C@@H](O)[C@@]1(C)F
Zika virus [1]
  Activity: <10%

## Cc1ccc(C#Cc2cn([C@@H]3O[C@H](CO)[C@@H](O)[C@@]3(C)F)c3ncnc(C)c23)s1
Zika virus [1]
  Activity: 43.9%

## Cc1ccsc1C#Cc1cn([C@@H]2O[C@H](CO)[C@@H](O)[C@@]2(C)F)c2ncnc(C)c12
Zika virus [1]
  Activity: 40.2%

## Cc1ncnc2c1c(C#Cc1ccc(Br)cc1F)cn2[C@@H]1O[C@H](CO)[C@@H](O)[C@@]1(C)F
A549 [2]
  CC50: > 50 µM
Zika virus [3]
  EC50: 3 µM
  EC90: 7.9 µM

## Cc1ncnc2c1c(C#Cc1ccc(Br)c(F)c1)cn2[C@@H]1O[C@H](CO)[C@@H](O)[C@@]1(C)F
A549 [2]
  CC50: > 50 µM
A549 [4]
  Activity: inactive
Zika virus [5]
  EC50: 3.1 µM
Zika virus [5]; time 4 day
  EC90: 7.1 µM
Zika virus [6]
  EC50: 8.9 µM
Zika virus [6]; time 4 day
  EC90: 19.8 µM
A549 [7]
  Activity: Active
Zika virus [8]
  EC50: 7.7 µM
Zika virus [8]; time 4 day
  EC90: 18.6 µM
Zika virus [9]
  EC50: 5.7 µM
Zika virus [9]; time 4 day
  EC90: 16.4 µM
Zika virus [3]
  EC50: 2.8 µM
  EC90: 6.8 µM
Huh-7
  CC50: 43.8 µM
Zika virus [10]
  EC50: 6.1 µM
Zika virus [10]; time 4 day
  EC90: 14.6 µM
NS5
  Kd: 1.87 µM
[11]
  CC50 at 24 h: 46.8 µM
Vero
  Activity: Active
A549 [12]
  Activity: Active
Zika virus [13]
  EC50: 6.4 µM
Zika virus [13]; time 4 day
  EC90: 16.6 µM
Zika virus [14]
  EC50: 6.4 µM
Zika virus [14]; time 4 day
  EC90: 18 µM
SNB-19
  CC50: 49.4 µM

## Cc1ccc(C#Cc2cn([C@@H]3O[C@H](CO)[C@@H](O)[C@@]3(C)F)c3ncnc(C)c23)cc1
A549 [2]
  CC50: > 50 µM
Zika virus [3]
  EC50: 11.8 µM
  EC90: 24.2 µM
Zika virus [1]
  Activity: >90%

## Cc1ncnc2c1c(C#Cc1cccs1)cn2[C@@H]1O[C@H](CO)[C@@H](O)[C@@]1(C)F
A549 [2]
  CC50: > 50 µM
Zika virus [3]
  EC50: 35.4 µM
  EC90: 50 µM
Zika virus [1]
  Activity: >90%

## Cc1ncnc2c1c(C#Cc1ccccc1Br)cn2[C@@H]1O[C@H](CO)[C@@H](O)[C@@]1(C)F
A549 [2]
  CC50: > 50 µM
Zika virus [3]
  EC50: 9.6 µM
  EC90: 19.7 µM
Zika virus [1]
  Activity: >90%

## Cc1ncnc2c1c(C#Cc1ccc(F)cc1)cn2[C@@H]1O[C@H](CO)[C@@H](O)[C@@]1(C)F
Zika virus [1]
  Activity: 37.5%

## Cc1ncnc2c1c(C#Cc1ncccn1)cn2[C@@H]1O[C@H](CO)[C@@H](O)[C@@]1(C)F
Zika virus [1]
  Activity: <10%

## Cc1cccc(C#Cc2cn([C@@H]3O[C@H](CO)[C@@H](O)[C@@]3(C)F)c3ncnc(C)c23)c1
A549 [2]
  CC50: > 50 µM
Zika virus [3]
  EC50: 7.1 µM
  EC90: 19.1 µM
Zika virus [1]
  Activity: >90%
